# According to publication PMC10093605, “ABCB1 and ABCG2 Overexpression Mediates Resistance to the Phosphatidylinositol 3-Kinase Inhibitor HS-173 in Cancer Cell Lines” (Cells, 2023):
# Experiments:
# ABCB1 = target: T1, ABCB1 (Homo sapiens, UniProt P08183); test: vanadate-sensitive ATPase, endpoint Pi assay, membrane vesicles; assay type: biochemical; details: read-out: concentration to produce half of the maximum stimulation
# T1 construct: membrane vesicles of ABCB1-overexpressing High Five insect cells
# T1 sequence (P08183 whole entry): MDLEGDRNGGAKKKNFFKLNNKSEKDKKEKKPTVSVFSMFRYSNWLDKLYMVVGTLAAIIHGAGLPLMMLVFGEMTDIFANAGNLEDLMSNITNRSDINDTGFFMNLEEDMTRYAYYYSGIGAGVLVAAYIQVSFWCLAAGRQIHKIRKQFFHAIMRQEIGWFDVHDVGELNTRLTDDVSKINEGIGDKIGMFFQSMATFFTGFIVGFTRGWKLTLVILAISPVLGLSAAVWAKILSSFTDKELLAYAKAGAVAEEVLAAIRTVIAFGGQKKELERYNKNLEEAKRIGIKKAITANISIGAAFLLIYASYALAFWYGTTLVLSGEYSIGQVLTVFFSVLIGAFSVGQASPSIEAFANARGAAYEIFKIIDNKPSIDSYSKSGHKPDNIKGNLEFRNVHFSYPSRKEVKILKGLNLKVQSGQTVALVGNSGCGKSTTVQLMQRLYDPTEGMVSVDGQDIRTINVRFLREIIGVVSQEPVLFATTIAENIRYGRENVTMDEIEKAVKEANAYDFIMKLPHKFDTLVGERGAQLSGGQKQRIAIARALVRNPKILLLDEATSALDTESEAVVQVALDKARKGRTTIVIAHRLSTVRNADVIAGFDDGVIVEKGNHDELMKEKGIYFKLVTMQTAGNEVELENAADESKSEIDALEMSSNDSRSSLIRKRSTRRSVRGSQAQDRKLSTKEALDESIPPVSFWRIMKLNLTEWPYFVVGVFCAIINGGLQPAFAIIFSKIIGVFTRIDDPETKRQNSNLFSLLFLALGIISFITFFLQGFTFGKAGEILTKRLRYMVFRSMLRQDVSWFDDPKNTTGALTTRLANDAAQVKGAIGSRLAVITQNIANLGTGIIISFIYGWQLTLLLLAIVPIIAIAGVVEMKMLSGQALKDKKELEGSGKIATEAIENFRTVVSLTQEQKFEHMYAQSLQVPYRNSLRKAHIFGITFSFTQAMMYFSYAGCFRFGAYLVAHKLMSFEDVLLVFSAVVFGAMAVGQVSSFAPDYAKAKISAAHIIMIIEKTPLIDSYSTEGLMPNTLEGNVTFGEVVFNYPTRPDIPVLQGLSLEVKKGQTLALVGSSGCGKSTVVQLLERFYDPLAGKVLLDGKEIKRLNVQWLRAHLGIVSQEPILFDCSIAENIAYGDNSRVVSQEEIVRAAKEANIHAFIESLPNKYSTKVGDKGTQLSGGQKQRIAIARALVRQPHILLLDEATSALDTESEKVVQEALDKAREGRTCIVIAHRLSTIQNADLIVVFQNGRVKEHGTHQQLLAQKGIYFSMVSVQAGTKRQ
# Source text: vanadate-sensitive ATPase, endpoint Pi assay, membrane vesicles on ABCB1 | HS-173 stimulated the ATPase activity of ABCB1 in a concentration-dependent manner
# ABCG2 = target: T2, ABCG2 (Homo sapiens, UniProt Q9UNQ0); test: as above; assay type: biochemical; details: read-out: concentration to produce half of the highest stimulation
# T2 construct: membrane vesicles of ABCG2-overexpressing High Five insect cells; homodimer
# T2 sequence (Q9UNQ0 1-655): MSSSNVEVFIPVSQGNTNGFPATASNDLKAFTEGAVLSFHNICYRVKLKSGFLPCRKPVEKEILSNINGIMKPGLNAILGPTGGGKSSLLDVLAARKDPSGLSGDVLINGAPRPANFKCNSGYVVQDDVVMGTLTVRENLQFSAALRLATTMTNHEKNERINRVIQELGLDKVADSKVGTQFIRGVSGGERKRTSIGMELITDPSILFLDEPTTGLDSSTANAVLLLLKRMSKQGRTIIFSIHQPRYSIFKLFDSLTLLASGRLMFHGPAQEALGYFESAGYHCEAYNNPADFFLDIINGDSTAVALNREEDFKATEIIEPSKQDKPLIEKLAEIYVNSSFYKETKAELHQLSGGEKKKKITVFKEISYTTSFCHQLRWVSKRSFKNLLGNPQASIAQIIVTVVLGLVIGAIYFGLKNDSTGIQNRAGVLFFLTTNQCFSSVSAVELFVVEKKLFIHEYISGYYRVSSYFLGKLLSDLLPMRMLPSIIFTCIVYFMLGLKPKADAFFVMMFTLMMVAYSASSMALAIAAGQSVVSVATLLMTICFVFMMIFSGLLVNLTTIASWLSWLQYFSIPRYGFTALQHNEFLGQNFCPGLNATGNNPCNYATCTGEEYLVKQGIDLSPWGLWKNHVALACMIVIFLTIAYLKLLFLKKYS
# Source text: vanadate-sensitive ATPase, endpoint Pi assay, membrane vesicles on ABCG2 | ABCG2-mediated ATP hydrolysis was stimulated by HS-173 in a concentration-dependent manner
compound,measurement,setting,value
CCOC(=O)c1cnc2ccc(-c3cncc(NS(=O)(=O)c4ccccc4)c3)cn12 [HS-173],EC50,ABCB1,~1700 nM
same,EC50,ABCG2,~400 nM
